Test results: patent publication US20260207578A1, “COMPOUND BASED ON SULFUR/OXYGEN SUBSTITUTED GLUTARIMIDE-BASED ISOINDOLINONE SKELETON AND USE THEREOF” (Gluetacs Therapeutics (Shanghai) Co., LTD., priority 2022, published 2026)

Key:
[1] = target: T1, human Cereblon WT GST-tagged protein (Homo sapiens, UniProt Q96SW2); test: CRBN-binding affinity, HTRF (CEREBLON BINDING kit); conditions: displacement of Thalidomide-Re reagent, 3 hours at room temperature
T1 construct: purchased CISBIO 64BDCRBNPEH
T1 sequence (Q96SW2 whole entry): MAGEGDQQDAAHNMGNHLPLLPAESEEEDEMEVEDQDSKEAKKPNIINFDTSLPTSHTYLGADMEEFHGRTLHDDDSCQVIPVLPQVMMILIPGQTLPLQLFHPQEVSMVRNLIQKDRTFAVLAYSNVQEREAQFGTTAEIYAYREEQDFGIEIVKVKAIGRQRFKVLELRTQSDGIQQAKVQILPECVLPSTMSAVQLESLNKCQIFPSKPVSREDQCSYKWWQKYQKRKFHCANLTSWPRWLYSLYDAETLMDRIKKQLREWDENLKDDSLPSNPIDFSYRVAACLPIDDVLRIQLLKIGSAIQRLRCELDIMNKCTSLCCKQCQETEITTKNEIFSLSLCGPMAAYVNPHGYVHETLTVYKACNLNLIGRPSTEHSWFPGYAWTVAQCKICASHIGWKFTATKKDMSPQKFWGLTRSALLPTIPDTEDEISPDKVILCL
Method in brief: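 HTRF competition format: compound, GST-tagged wild-type human Cereblon, Thalidomide-Re tracer and GST Eu antibody were combined in PROTAC binding buffer. Binding was derived from emission at 620 nm relative to blank and solvent control wells.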

IKZF3 = target: T2, IKZF3 (Homo sapiens, UniProt Q96SW2+Q9UKT9); test: Western-blot assay, substrate protein in hPBMCs; type: cell-based; conditions: hPBMC cells, 24 hours, tested at 50 nM and 500 nM, table does not say which
T2 construct: endogenous in cells; host or cells: human PBMCs (Milecell Biotechnologies)
T2 sequence (Q9UKT9 whole entry): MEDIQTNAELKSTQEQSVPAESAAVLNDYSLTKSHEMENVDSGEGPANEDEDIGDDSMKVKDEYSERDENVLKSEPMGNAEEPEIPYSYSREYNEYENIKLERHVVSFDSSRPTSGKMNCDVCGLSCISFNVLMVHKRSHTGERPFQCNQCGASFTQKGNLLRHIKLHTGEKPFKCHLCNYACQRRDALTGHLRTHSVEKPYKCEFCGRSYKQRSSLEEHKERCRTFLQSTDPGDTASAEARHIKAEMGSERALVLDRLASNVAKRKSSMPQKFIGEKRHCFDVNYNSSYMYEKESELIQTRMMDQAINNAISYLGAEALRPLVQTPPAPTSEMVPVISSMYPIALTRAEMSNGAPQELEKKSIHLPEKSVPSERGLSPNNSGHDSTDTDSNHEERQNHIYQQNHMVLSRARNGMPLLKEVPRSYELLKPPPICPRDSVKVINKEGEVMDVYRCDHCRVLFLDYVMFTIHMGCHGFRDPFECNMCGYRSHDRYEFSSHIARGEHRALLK
T2 sequence (Q96SW2 whole entry): as the sequence (Q96SW2 whole entry) above
T2 sequence (Q16531 whole entry partner): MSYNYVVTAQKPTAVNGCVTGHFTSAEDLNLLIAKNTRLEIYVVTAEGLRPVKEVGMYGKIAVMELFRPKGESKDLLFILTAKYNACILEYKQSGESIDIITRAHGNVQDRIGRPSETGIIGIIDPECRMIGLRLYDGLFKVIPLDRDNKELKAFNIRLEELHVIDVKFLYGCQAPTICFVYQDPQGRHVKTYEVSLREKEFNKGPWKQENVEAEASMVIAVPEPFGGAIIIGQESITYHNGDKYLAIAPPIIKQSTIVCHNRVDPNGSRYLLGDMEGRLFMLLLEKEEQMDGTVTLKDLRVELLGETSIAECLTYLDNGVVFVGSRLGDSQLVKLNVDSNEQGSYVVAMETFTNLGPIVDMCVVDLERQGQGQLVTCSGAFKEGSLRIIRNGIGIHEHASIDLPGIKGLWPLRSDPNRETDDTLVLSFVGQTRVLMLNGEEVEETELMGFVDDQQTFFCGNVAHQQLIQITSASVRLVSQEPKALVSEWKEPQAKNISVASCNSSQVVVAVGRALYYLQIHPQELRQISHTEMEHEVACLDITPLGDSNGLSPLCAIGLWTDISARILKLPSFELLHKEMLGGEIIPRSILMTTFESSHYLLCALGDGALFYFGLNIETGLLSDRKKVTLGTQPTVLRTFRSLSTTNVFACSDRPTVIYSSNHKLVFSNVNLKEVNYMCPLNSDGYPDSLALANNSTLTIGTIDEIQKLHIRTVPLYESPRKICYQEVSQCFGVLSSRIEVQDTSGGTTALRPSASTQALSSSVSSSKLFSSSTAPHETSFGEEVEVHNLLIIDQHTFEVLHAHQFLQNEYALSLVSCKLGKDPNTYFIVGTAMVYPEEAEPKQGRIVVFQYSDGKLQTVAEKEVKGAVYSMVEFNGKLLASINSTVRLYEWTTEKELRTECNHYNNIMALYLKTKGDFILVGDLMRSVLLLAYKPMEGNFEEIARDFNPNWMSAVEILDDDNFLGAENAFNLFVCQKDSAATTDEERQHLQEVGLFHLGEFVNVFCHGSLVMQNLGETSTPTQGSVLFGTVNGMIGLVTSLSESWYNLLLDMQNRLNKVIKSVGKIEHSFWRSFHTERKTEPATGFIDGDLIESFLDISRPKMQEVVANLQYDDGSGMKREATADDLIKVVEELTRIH
Procedure: (§1) The effect of the compounds of the present disclosure on the expression of target proteins in cells was detected using conventional Western blot analysis.
(§2) Human peripheral blood mononuclear cells (hPBMCs) at a density of 1×10^6 cells/mL were thawed according to the PBMC Recovery Protocol (Milecell Biotechnologies Inc, Shanghai). The cells were then treated with the compounds of the present disclosure (including the compounds listed in Tables 1 and 2, and the Examples A1-A20 and 1-116 compounds) at concentrations of 50 nM and 500 nM.
(§3) Controls included a negative control (DMSO) and a positive control (the commercial immunomodulatory drug lenalidomide), both processed following the identical experimental protocol as the compounds of the present disclosure. After 24 hours of compounds treatment, cells were harvested and lysed in RIPA protein lysate containing phosphatase inhibitors on ice for 30-60 min, followed by centrifugation. The supernatant was aspirated as the extracted total cell protein. The protein concentration of the supernatant was determined using the conventional BCA (Bicinchoninic Acid) assay. The supernatant was then mixed with 4× SDS sample loading buffer, denatured at 95° C. for 5 minutes, and then subjected to SDS-PAGE electrophoresis on a polyacrylamide gel. Proteins were then transferred to a nitrocellulose (NC) membrane, blocked at room temperature for 1-2 h, and processed for antibody incubation and detection according to the manufacturer's instructions (Cell Signaling Technology).
(§4) Half-Maximal Degradation Concentration value (the drug concentration required for degrading proteins by 50%, abbreviated as DC50) reads method: comparing the grayscale values of Western blot bands from drug-treated samples with those from blank DMSO-treated controls, and identifying the drug concentration range at which the grayscale value is half that of the DMSO-treated control bands.
(§5) DC50 values can be calculated using ImageJ software to measure grayscale values of Western blot bands from drug-treated samples. The concentration-response curve is fitted to estimate the drug concentration corresponding to half the grayscale value.
(§6) Target protein remaining (%) refers to the percentage of target protein remaining in hPBMC cells after treatment with protein degrader compounds.
(§7) Calculation method for protein remaining (%): Use ImageJ software to measure grayscale values of Western blot bands from drug (protein degrader)-treated samples. The grayscale value of drug-treated bands is divided by that of internal control protein bands, and the resulting quotient is normalized to obtain the relative percentage of remaining target protein after protein degrader treatment.
(§8) Target protein degradation rate (%)=100%−target protein remaining (%).

IKZF2 = target: T3, IKZF2 (Homo sapiens, UniProt Q96SW2+Q9UKS7); test: Western-blot assay, substrate protein in hPBMCs; type: cell-based; conditions: hPBMC cells, 24 hours, tested at 50 nM and 500 nM, table does not say which
T3 construct: endogenous in cells; host or cells: human PBMCs (Milecell Biotechnologies)
T3 sequence (Q9UKS7 whole entry): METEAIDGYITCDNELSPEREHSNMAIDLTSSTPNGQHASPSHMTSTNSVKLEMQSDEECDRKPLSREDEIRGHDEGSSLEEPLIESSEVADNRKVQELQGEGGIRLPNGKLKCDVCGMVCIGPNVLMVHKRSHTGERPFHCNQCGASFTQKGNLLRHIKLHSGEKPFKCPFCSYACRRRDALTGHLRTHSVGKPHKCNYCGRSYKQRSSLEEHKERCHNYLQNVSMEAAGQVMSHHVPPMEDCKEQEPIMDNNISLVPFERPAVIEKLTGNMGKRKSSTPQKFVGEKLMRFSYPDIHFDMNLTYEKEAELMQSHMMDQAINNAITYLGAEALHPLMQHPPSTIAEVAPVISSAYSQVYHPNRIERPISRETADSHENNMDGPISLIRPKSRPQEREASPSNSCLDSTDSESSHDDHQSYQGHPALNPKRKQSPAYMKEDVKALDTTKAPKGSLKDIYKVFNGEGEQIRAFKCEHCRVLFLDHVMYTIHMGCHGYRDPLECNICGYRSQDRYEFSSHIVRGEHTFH
T3 sequence (Q96SW2 whole entry): as the sequence (Q96SW2 whole entry) above
T3 sequence (Q16531 whole entry partner): as the sequence (Q16531 whole entry partner) above
Method in brief: (§9)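 Steps: treat hPBMCs 24 h; lyse on ice in RIPA with phosphatase inhibitors; quantify protein by BCA; denature at 95 °C and blot. Remaining protein (%) is the target/internal-control band ratio, normalised; degradation rate is its complement.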

Wee1 = target: T4, Wee1 (Homo sapiens, UniProt P30291+Q96SW2); test: Western-blot assay, substrate protein in hPBMCs; type: cell-based; conditions: hPBMC cells, 24 hours, tested at 50 nM and 500 nM, table does not say which
T4 construct: endogenous in cells; host or cells: human PBMCs (Milecell Biotechnologies)
T4 sequence (P30291 whole entry): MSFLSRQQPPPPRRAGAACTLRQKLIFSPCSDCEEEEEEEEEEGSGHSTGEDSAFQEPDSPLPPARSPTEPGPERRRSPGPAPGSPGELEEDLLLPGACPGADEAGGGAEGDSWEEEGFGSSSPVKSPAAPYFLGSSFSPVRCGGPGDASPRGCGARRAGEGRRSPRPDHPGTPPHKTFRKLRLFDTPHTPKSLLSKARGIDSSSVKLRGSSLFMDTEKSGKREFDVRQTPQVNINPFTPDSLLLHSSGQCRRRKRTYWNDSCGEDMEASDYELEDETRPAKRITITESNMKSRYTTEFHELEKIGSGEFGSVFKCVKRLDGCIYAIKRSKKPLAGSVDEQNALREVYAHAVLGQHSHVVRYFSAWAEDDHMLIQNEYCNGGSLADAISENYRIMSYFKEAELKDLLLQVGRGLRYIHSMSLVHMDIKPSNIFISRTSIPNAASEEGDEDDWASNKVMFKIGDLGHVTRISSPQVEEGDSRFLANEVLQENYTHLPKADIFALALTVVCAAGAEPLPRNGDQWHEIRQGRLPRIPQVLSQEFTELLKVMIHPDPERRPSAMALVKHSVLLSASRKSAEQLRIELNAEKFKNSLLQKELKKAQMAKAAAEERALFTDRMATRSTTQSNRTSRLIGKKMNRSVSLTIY
T4 sequence (Q96SW2 whole entry): as the sequence (Q96SW2 whole entry) above
T4 sequence (Q16531 whole entry partner): as the sequence (Q16531 whole entry partner) above
Method in brief: as §9

IKZF1 = target: T5, IKZF1 (Homo sapiens, UniProt Q13422+Q96SW2); test: Western-blot assay, substrate protein in hPBMCs; type: cell-based; conditions: hPBMC cells, 24 hours, tested at 50 nM and 500 nM, table does not say which
T5 construct: endogenous in cells; host or cells: human PBMCs (Milecell Biotechnologies)
T5 sequence (Q13422 whole entry): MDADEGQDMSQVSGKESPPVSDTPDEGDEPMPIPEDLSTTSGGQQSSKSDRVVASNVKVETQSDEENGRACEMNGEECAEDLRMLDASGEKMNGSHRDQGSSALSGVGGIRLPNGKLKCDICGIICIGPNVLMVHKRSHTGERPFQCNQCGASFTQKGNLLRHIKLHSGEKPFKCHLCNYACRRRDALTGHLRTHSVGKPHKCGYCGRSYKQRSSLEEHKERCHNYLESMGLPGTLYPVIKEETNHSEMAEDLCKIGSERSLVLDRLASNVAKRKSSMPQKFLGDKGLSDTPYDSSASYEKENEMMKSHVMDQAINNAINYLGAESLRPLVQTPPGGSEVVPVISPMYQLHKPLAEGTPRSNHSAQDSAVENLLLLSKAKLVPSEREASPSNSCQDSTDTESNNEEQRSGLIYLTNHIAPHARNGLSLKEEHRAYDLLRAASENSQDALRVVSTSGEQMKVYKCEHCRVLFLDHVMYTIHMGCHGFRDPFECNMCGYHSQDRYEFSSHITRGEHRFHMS
T5 sequence (Q96SW2 whole entry): as the sequence (Q96SW2 whole entry) above
T5 sequence (Q16531 whole entry partner): as the sequence (Q16531 whole entry partner) above
Procedure: as §1, §2, §3, §4, §5, §6, §7, §8

CK1α = target: T6, CK1α (Homo sapiens, UniProt P48729+Q96SW2); test: Western-blot assay, substrate protein in hPBMCs; type: cell-based; conditions: hPBMC cells, 24 hours, tested at 50 nM and 500 nM, table does not say which
T6 construct: endogenous in cells; host or cells: human PBMCs (Milecell Biotechnologies)
T6 sequence (P48729 whole entry): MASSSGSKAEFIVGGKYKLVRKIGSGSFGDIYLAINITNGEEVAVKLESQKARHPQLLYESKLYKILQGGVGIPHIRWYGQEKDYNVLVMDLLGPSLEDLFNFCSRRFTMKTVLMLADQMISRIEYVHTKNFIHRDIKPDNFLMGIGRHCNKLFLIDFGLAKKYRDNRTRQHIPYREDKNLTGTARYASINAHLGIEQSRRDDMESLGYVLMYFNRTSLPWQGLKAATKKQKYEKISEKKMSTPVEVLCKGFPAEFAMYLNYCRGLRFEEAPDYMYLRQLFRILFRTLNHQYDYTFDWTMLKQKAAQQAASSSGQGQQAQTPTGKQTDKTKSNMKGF
T6 sequence (Q96SW2 whole entry): as the sequence (Q96SW2 whole entry) above
T6 sequence (Q16531 whole entry partner): as the sequence (Q16531 whole entry partner) above
Method in brief: as §9

GSPT1 = target: T7, GSPT1 (Homo sapiens, UniProt P15170+Q96SW2); test: Western-blot assay, substrate protein in hPBMCs; type: cell-based; conditions: hPBMC cells, 24 hours, tested at 50 nM and 500 nM, table does not say which
T7 construct: endogenous in cells; host or cells: human PBMCs (Milecell Biotechnologies)
Method in brief: as §9

IC50 [1] | Structure (SMILES) | substrate protein remaining % (IKZF3) | substrate protein remaining % (IKZF2) | substrate protein remaining % (Wee1) | substrate protein remaining % (IKZF1) | substrate protein remaining % (CK1α) | substrate protein remaining % (GSPT1)
500 to 1000 nM | CC1(C)CCC(CN2CCCC(Oc3ccc4c(c3)CN(C3CCC(=O)NC3=O)C4=O)CC2)=C(c2ccc(Cl)cc2)C1 (centres unmarked) [GT-06929, 3-(5-((1-((4′-chloro-5,5-dimethyl-3,4,5,6-tetrahydro-[1,1′-biphenyl]-2-yl)methyl)azepan-4-yl)oxy)-1-oxoisoindolin-2-yl)piperidine-2,6-dione] | A (0%≤ substrate protein remaining % ≤80%) | A (0%≤ substrate protein remaining % ≤80%) | A (0%≤ substrate protein remaining % ≤80%) |  |  | 
1000 to 1900 nM | O=C1CCC(N2Cc3cc(SC4CCNCC4)ccc3C2=O)C(=O)N1 (centres unmarked) [GT-03616, 3-(1-oxo-5-(piperidin-4-ylthio)isoindolin-2-yl)piperidine-2,6-dione] |  | A (0%≤ substrate protein remaining % ≤80%) |  | A (0%≤ substrate protein remaining % ≤80%) | A (0%≤ substrate protein remaining % ≤80%) | A (0%≤ substrate protein remaining % ≤80%)
500 to 1000 nM | O=C1CCC(N2Cc3cc(SC4CN(Cc5ccc(-c6ccncc6)nc5)C4)ccc3C2=O)C(=O)N1 (centres unmarked) [GT-06808, 3-(5-((1-([2,4′-bipyridin]-5-ylmethyl)azetidin-3-yl)thio)-1-oxoisoindolin-2-yl)piperidine-2,6-dione] |  | A (0%≤ substrate protein remaining % ≤80%) | A (0%≤ substrate protein remaining % ≤80%) | A (0%≤ substrate protein remaining % ≤80%) | A (0%≤ substrate protein remaining % ≤80%) | 
< 500 nM | O=C1CCC(N2Cc3cc(SC4CCN(C(=O)c5ccccc5-c5ccc(Cl)cc5)C4)ccc3C2=O)C(=O)N1 (centres unmarked) [GT-06181, 3-(5-((1-(4′-chloro-[1,1′-biphenyl]-2-carbonyl)pyrrolidin-3-yl)thio)-1-oxoisoindolin-2-yl)piperidine-2,6-dione] | A (0%≤ substrate protein remaining % ≤80%) |  | A (0%≤ substrate protein remaining % ≤80%) |  |  | A (0%≤ substrate protein remaining % ≤80%)
1000 to 1900 nM | O=C1CCC(N2Cc3cc(SC4CN(CC5=C(c6ccc(Cl)cc6)CCC(F)(F)C5)C4)ccc3C2=O)C(=O)N1 (centres unmarked) [GT-06516, 3-(5-((1-((4′-chloro-4,4-difluoro-3,4,5,6-tetrahydro-[1,1′-biphenyl]-2-yl)methyl)azetidin-3-yl)thio)-1-oxoisoindolin-2-yl)piperidine-2,6-dione] | A (0%≤ substrate protein remaining % ≤80%) | A (0%≤ substrate protein remaining % ≤80%) | A (0%≤ substrate protein remaining % ≤80%) |  | A (0%≤ substrate protein remaining % ≤80%) | A (0%≤ substrate protein remaining % ≤80%)
< 500 nM | O=C1CCC(N2Cc3cc(SC4CCC5(CC4)CCN(C(c4ccccc4)c4ccccc4)CC5)ccc3C2=O)C(=O)N1 (centres unmarked) [GT-06958, 3-(5-((3-benzhydryl-3-azaspiro[5.5]undecan-9-yl)thio)-1-oxoisoindolin-2-yl)piperidine-2,6-dione] | A (0%≤ substrate protein remaining % ≤80%) |  | A (0%≤ substrate protein remaining % ≤80%) |  | A (0%≤ substrate protein remaining % ≤80%) | A (0%≤ substrate protein remaining % ≤80%)
< 500 nM | O=C1CCC(N2Cc3cc(OC4CN(C(c5ccccc5)c5ccccc5)C4)ccc3C2=O)C(=O)N1 (centres unmarked) [GT-06185, 3-(5-((1-benzhydrylazetidin-3-yl)oxy)-1-oxoisoindolin-2-yl)piperidine-2,6-dione] | A (0%≤ substrate protein remaining % ≤80%) | A (0%≤ substrate protein remaining % ≤80%) |  |  |  | A (0%≤ substrate protein remaining % ≤80%)
500 to 1000 nM | O=C1CCC(N2Cc3cc(OC4CN(CC5=C(c6ccc(F)cc6)CCOC5)C4)ccc3C2=O)C(=O)N1 (centres unmarked) [GT-06560, 3-(5-((1-((4-(4-fluorophenyl)-5,6-dihydro-2H-pyran-3-yl)methyl)azetidin-3-yl)oxy)-1-oxoisoindolin-2-yl)piperidine-2,6-dione] | A (0%≤ substrate protein remaining % ≤80%) |  | A (0%≤ substrate protein remaining % ≤80%) |  |  | 
500 to 1000 nM | CC1(C)CCC(C(=O)N2C[C@H]3CC(Sc4ccc5c(c4)CN(C4CCC(=O)NC4=O)C5=O)C[C@@H]3C2)=C(c2ccc(Cl)cc2)C1 (stereo partly drawn) [GT-07022, 3-(5-(((3aS,6aS)-2-(4′-chloro-5,5-dimethyl-3,4,5,6-tetrahydro-[1,1′-biphenyl]-2-carbonyl)octahydro-cyclopenta[c]pyrrol-5-yl)thio)-1-oxoisoindolin-2-yl)piperidine-2,6-dione] | A (0%≤ substrate protein remaining % ≤80%) |  |  |  | A (0%≤ substrate protein remaining % ≤80%) | 
< 500 nM | O=C1CCC(N2Cc3cc(SC4CNC4)ccc3C2=O)C(=O)N1 (centres unmarked) [GT-03613, 3-(5-(azetidin-3-ylthio)-1-oxoisoindolin-2-yl)piperidine-2,6-dione] |  | A (0%≤ substrate protein remaining % ≤80%) | A (0%≤ substrate protein remaining % ≤80%) | A (0%≤ substrate protein remaining % ≤80%) | A (0%≤ substrate protein remaining % ≤80%) | A (0%≤ substrate protein remaining % ≤80%)
500 to 1000 nM | O=C1CCC(N2Cc3cc(SC4CCN(C(c5ccccc5)c5ccccc5)CC4)ccc3C2=O)C(=O)N1 (centres unmarked) [GT-06184, 3-(5-((1-benzhydrylpiperidin-4-yl)thio)-1-oxoisoindolin-2-yl)piperidine-2,6-dione] | A (0%≤ substrate protein remaining % ≤80%) |  |  |  |  | A (0%≤ substrate protein remaining % ≤80%)
< 500 nM | COc1ccc(C(c2ccc(OC)cc2)N2CC(Oc3ccc4c(c3)CN(C3CCC(=O)NC3=O)C4=O)C2)cc1 (centres unmarked) [GT-06959, 3-(5-((1-(bis(4-methoxyphenyl)methyl)azetidin-3-yl)oxy)-1-oxoisoindolin-2-yl)piperidine-2,6-dione] | A (0%≤ substrate protein remaining % ≤80%) |  | A (0%≤ substrate protein remaining % ≤80%) |  | A (0%≤ substrate protein remaining % ≤80%) | A (0%≤ substrate protein remaining % ≤80%)
500 to 1000 nM | CC1(C)CCC(C(=O)N2C[C@H]3CC(Sc4ccc5c(c4)CN(C4CCC(=O)NC4=O)C5=O)C[C@H]3C2)=C(c2ccc(Cl)cc2)C1 (stereo partly drawn) [GT-07015, 3-(5-(((3aR,6aS)-2-(4′-chloro-5,5-dimethyl-3,4,5,6-tetrahydro-[1,1′-biphenyl]-2-carbonyl)octahydro-cyclopenta[c]pyrrol-5-yl)thio)-1-oxoisoindolin-2-yl)piperidine-2,6-dione] | A (0%≤ substrate protein remaining % ≤80%) | A (0%≤ substrate protein remaining % ≤80%) |  |  |  | 
